{"source": "patent US9012489B2", "about": "“Phenyl-3-aza-bicyclo[3.1.0]hex-3-yl-methanones and the use thereof as medicament” (Boehringer Ingelheim International GmbH, priority 2011, dated 2015)", "data": [{"target": "T1, GlyT1 transporter (Homo sapiens, UniProt P48067)", "T1 construct": "endogenously expressing the GlyT1 transporter; host or cells: SK-N-MC human neuroblastoma cells", "T1 sequence (P48067 1-706)": "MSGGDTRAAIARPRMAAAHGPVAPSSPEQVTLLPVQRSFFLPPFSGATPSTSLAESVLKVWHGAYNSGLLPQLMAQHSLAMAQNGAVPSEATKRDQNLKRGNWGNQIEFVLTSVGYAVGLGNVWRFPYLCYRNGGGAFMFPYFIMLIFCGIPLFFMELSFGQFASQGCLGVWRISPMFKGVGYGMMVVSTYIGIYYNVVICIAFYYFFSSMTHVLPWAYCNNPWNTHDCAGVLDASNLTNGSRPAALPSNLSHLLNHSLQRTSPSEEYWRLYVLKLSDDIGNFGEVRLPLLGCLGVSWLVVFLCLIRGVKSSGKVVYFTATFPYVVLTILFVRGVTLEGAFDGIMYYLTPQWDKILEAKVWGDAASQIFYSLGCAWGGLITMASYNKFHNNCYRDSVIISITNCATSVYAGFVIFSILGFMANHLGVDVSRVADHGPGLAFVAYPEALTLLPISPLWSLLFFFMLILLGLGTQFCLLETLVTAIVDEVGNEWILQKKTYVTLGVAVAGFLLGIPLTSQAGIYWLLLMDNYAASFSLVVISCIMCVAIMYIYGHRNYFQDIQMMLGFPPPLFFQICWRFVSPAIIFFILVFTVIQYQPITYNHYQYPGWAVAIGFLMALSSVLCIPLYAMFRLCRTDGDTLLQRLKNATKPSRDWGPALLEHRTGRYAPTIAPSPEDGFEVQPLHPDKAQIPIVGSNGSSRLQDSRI", "test": "GlyT1 assay: 3H-glycine uptake into SK-N-MC cells (Cytostar-T format)", "assay_type": "cell-based", "details": "glycine uptake in human SK-N-MC cells endogenously expressing GlyT1; 500 nM glycine, 1% DMSO, signal recorded over 60 min", "in_short": "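Uptake slopes, measured over 60 min from the linear kinetic range, give IC50 from 8 compound concentrations, with 10 μM RG-1678 setting background. Substrate is 500 nM glycine (250 nM ³H, 250 nM unlabelled) in HBSS/5 mM alanine, 1% DMSO, after roughly 5-10 min compound preincubation. Cells: confluent SK-N-MC endogenously expressing human GlyT1.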", "units": {"IC50": "µM"}, "values": [{"smiles": "Cc1cc(C23CC2CN(C(=O)c2cc(S(C)(=O)=O)ccc2O[C@@H](C)C(F)(F)F)C3)no1", "note": "(mixture of isomers) [Example 52, [5-Methanesulfonyl-2-(2,2,2-trifluoro-1-methyl-ethoxy)-phenyl]-[1-(5-methyl-isoxazol-3-yl)-3-aza-bicyclo[3.1.0]hex-3-yl]-methanone]", "IC50": 0.015}, {"smiles": "CS(=O)(=O)c1ccc(O[C@@H]2CCOC2)c(C(=O)N2CC3CC3(c3noc(C(F)(F)F)n3)C2)c1", "note": "(single isomer, unassigned) [Example 139, [5-Methanesulfonyl-2-(tetrahydro-furan-3-yloxy)-phenyl]-[1-(5-trifluoromethyl-[1,2,4]oxadiazol-3-yl)-3-aza-bicyclo[3.1.0]hex-3-yl]-methanone]", "IC50": 0.253}, {"smiles": "C[C@H](Oc1ccc(S(C)(=O)=O)cc1C(=O)N1CC2CC2(c2nnc(C3(C(F)(F)F)CC3)o2)C1)C(F)(F)F", "note": "(mixture of isomers) [Example 151, [5-Methanesulfonyl-2-(2,2,2-trifluoro-1-methyl-ethoxy)-phenyl]-{1-[5-(1-trifluoromethyl-cyclopropyl)-[1,3,4]oxadiazol-2-yl]-3-aza-bicyclo[3.1.0]hex-3-yl}-methanone]", "IC50": 0.01}, {"smiles": "COC1(c2nc(C34CC3CN(C(=O)c3cc(S(C)(=O)=O)ccc3O[C@H](C)C(F)(F)F)C4)no2)CC1", "note": "(single isomer, unassigned) [Example 120, [5-Methanesulfonyl-2-(2,2,2-trifluoro-1-methyl-ethoxy)-phenyl]-{1-[5-(1-methoxy-cyclopropyl)-[1,2,4]oxadiazol-3-yl]-3-aza-bicyclo[3.1.0]hex-3-yl}-methanone]", "IC50": 0.006}, {"smiles": "C[C@H](Oc1ccc(S(C)(=O)=O)cc1C(=O)N1CC2(C)CC2(c2noc(C(F)(F)F)n2)C1)C(F)(F)F", "note": "(single isomer, unassigned) [Example 159, [5-Methanesulfonyl-2-(2,2,2-trifluoro-1-methyl-ethoxy)-phenyl]-[1-methyl-5-(5-trifluoromethyl-[1,2,4]oxadiazol-3-yl)-3-aza-bicyclo[3.1.0]hex-3-yl]-methanone]", "IC50": 0.953}, {"smiles": "CS(=O)(=O)c1ccc(-n2ccc(C(F)(F)F)n2)c(C(=O)N2CC3CC3(c3noc(C(F)(F)F)n3)C2)c1", "note": "(racemic) [Example 141, [5-Methanesulfonyl-2-(3-trifluoromethyl-pyrazol-1-yl)-phenyl]-[1-(5-trifluoromethyl-[1,2,4]oxadiazol-3-yl)-3-aza-bicyclo[3.1.0]hex-3-yl]-methanone]", "IC50": 0.764}, {"smiles": "C[C@H](Oc1ccc(S(C)(=O)=O)cc1C(=O)N1CC2(C)CC2(c2noc(C(F)(F)F)n2)C1)C(F)(F)F", "note": "(mixture of isomers) [Example 157, [5-Methanesulfonyl-2-(2,2,2-trifluoro-1-methyl-ethoxy)-phenyl]-[1-methyl-5-(5-trifluoromethyl-[1,2,4]oxadiazol-3-yl)-3-aza-bicyclo[3.1.0]hex-3-yl]-methanone]", "IC50": 0.147}, {"smiles": "CCS(=O)(=O)c1ccc(O[C@@H](C)C(F)(F)F)c(C(=O)N2CC3CC3(c3cc(C(F)(F)F)on3)C2)c1", "note": "(single isomer, unassigned) [Example 103, [5-Ethanesulfonyl-2-(2,2,2-trifluoro-1-methyl-ethoxy)-phenyl]-[1-(5-trifluoromethyl-isoxazol-3-yl)-3-aza-bicyclo[3.1.0]hex-3-yl]-methanone]", "IC50": 0.007}, {"smiles": "C[C@H](Oc1ccc(S(C)(=O)=O)cc1C(=O)N1CC2CC2(c2nc(C(F)(F)F)no2)C1)C(F)(F)F", "note": "(mixture of isomers) [Example 36, [5-Methanesulfonyl-2-(2,2,2-trifluoro-1-methyl-ethoxy)-phenyl]-[1-(3-trifluoromethyl-[1,2,4]oxadiazol-5-yl)-3-aza-bicyclo[3.1.0]hex-3-yl]-methanone]", "IC50": 0.062}, {"smiles": "C[C@@H](Oc1ccc(S(C)(=O)=O)cc1C(=O)N1CC2CC2(c2ncc(C(F)(F)F)o2)C1)C(F)(F)F", "note": "(mixture of isomers) [Example 128, [5-Methanesulfonyl-2-(2,2,2-trifluoro-1-methyl-ethoxy)-phenyl]-[1-(5-trifluoromethyl-oxazol-2-yl)-3-aza-bicyclo[3.1.0]hex-3-yl]-methanone]", "IC50": 0.006}, {"smiles": "Cc1nnc(C23CC2CN(C(=O)c2cc(S(C)(=O)=O)ccc2O[C@@H](C)C(F)(F)F)C3)o1", "note": "(mixture of isomers) [Example 38, [5-Methanesulfonyl-2-(2,2,2-trifluoro-1-methyl-ethoxy)-phenyl]-[1-(5-methyl-[1,3,4]oxadiazol-2-yl)-3-aza-bicyclo[3.1.0]hex-3-yl]-methanone]", "IC50": 0.089}, {"smiles": "C[C@@H](Oc1ccc(S(C)(=O)=O)cc1C(=O)N1CC2CC2(c2nc(C3CC3)no2)C1)C(F)(F)F", "note": "(mixture of isomers) [Example 145, [1-(3-Cyclopropyl-[1,2,4]oxadiazol-5-yl)-3-aza-bicyclo[3.1.0]hex-3-yl]-[5-methanesulfonyl-2-(2,2,2-trifluoro-1-methyl-ethoxy)-phenyl]-methanone]", "IC50": 0.007}, {"smiles": "C[C@H](Oc1ccc(S(C)(=O)=O)cc1C(=O)N1CC2CC2(c2noc(C3CC3)n2)C1)C(F)(F)F", "note": "(mixture of isomers) [Example 9, [1-(5-Cyclopropyl-[1,2,4]oxadiazol-3-yl)-3-aza-bicyclo[3.1.0]hex-3-yl]-[5-methanesulfonyl-2-(2,2,2-trifluoro-1-methyl-ethoxy)-phenyl]-methanone]", "IC50": 0.018}, {"smiles": "CCS(=O)(=O)c1ccc(O[C@H](C)C(F)(F)F)c(C(=O)N2CC3CC3(c3cc(C(F)(F)F)on3)C2)c1", "note": "(mixture of isomers) [Example 105, [5-Ethanesulfonyl-2-(2,2,2-trifluoro-1-methyl-ethoxy)-phenyl]-[1-(5-trifluoromethyl-isoxazol-3-yl)-3-aza-bicyclo[3.1.0]hex-3-yl]-methanone]", "IC50": 0.007}, {"smiles": "CCS(=O)(=O)c1ccc(O[C@@H](C)C(F)(F)F)c(C(=O)N2CC3CC3(c3cc(C(F)(F)F)on3)C2)c1", "note": "(single isomer, unassigned) [Example 104, [5-Ethanesulfonyl-2-(2,2,2-trifluoro-1-methyl-ethoxy)-phenyl]-[1-(5-trifluoromethyl-isoxazol-3-yl)-3-aza-bicyclo[3.1.0]hex-3-yl]-methanone]", "IC50": 0.292}, {"smiles": "CCS(=O)(=O)c1ccc(O[C@H](C)C(F)(F)F)c(C(=O)N2CC3CC3(c3cc(C(F)(F)F)on3)C2)c1", "note": "(single isomer, unassigned) [Example 107, [5-Ethanesulfonyl-2-(2,2,2-trifluoro-1-methyl-ethoxy)-phenyl]-[1-(5-trifluoromethyl-isoxazol-3-yl)-3-aza-bicyclo[3.1.0]hex-3-yl]-methanone]", "IC50": 0.005}, {"smiles": "CCS(=O)(=O)c1ccc(O[C@H](C)C(F)(F)F)c(C(=O)N2CC3CC3(c3cc(C(F)(F)F)on3)C2)c1", "note": "(single isomer, unassigned) [Example 106, [5-Ethanesulfonyl-2-(2,2,2-trifluoro-1-methyl-ethoxy)-phenyl]-[1-(5-trifluoromethyl-isoxazol-3-yl)-3-aza-bicyclo[3.1.0]hex-3-yl]-methanone]", "IC50": 0.248}, {"smiles": "C[C@H](Oc1ccc(S(C)(=O)=O)cc1C(=O)N1CC2CC2(c2noc(C3(C(F)(F)F)CC3)n2)C1)C(F)(F)F", "note": "(mixture of isomers) [Example 65, [5-Methanesulfonyl-2-(2,2,2-trifluoro-1-methyl-ethoxy)-phenyl]-{1-[5-(1-trifluoromethyl-cyclopropyl)-[1,2,4]oxadiazol-3-yl]-3-aza-bicyclo[3.1.0]hex-3-yl}-methanone]", "IC50": 0.009}]}]}
